30 molecules from patent US20080096861A1, “Chemical Compounds” (SMITHKLINE BEECHAM CORPORATION, priority 2004, published 2008) can be followed below.

Molecules are shown by their SMILES. Where only a bound is given, the exact number is not on record here.

This assay deals with HIV-1 IIIB. Description: HOS HIV-1 infectivity assay. The assay is classed as cell-based. The settings on record: Human immunodeficiency virus 1, IIIB; as determined by the infectivity assay; strain not stated in Table 2; read-out: Activity Level. As to the method:
Compounds were profiled against two HIV-1 viruses, the M-tropic (CCR5 utilizing) Ba-L strain and the T-tropic (CXCR4 utilizing) IIIB strain. Both viruses were propagated in human peripheral blood lymphocytes. Compounds were tested for there ability to block infection of the HOS cell line (expressing hCXCR4/hCCR5/hCD4/pHIV-LTR-luciferase) by either HIV-1 Ba-L or HIV-1 IIIB. Compound cytotoxicity was also examined in the absence of virus addition.
HOS cells (expressing hCXCR4/hCCR5/hCD4/pHIV-LTR-luciferase) were harvested and diluted in Dulbeccos modified Eagles media supplemented with 2% FCS and non-essential amino acid to a concentration of 60,000 cells/ml. The cells were plated into 96-well plates (100 ul per well) and the plates were placed in a tissue culture incubator (37° C.; 5% CO2/95% air) for a period of 24 h.
Subsequently, 50 ul of the desired drug solution (4 times the final concentration) was added to each well and the plates were returned to the tissue culture incubator (37° C.; 5% CO2/95% air) for 1 h. Following this incubation 50 ul of diluted virus was added to each well (approximately 2 million RLU per well of virus). The plates were returned to the tissue culture incubator (37° C.; 5% CO2/95% air) and were incubated for a further 96 h.
Following this incubation the endpoint for the virally infected cultures was quantified following addition of Steady-Glo Luciferase assay system reagent (Promega, Madison, Wis.). Cell viability or non-infected cultures was measured using a CellTiter-Glo luminescent cell viability assay system (Promega, Madison, Wis.). All luminescent readouts are performed on a Topcount luminescence detector (Packard, Meridien, Conn.).
Consider `CN(Cc1nc2ccccc2n1CCCCNS(C)(=O)=O)C1CCCc2cccnc21` (stereo not drawn) [Example 51, N-[4-(2-{[Methyl(5,6,7,8-tetrahydro-8-quinolinyl)amino]methyl}-1H-benzimidazol-1-yl)butyl]methanesulfonamide], for which the IC50 lay within 100 to 500 nM.

Consider `NCCCn1c(CN(CCc2ccccc2)C2CCCc3cccnc32)nc2ccccc21` (stereo not drawn) [Example 52, N-{[1-(3-Aminopropyl)-1H-benzimidazol-2-yl]methyl}-N-(2-phenylethyl)-5,6,7,8-tetrahydro-8-quinolinamine], for which the IC50 lay within 500 to 10000 nM.

In the case of `NCCCCn1c(CN(CCc2ccccc2)C2CCCc3cccnc32)nc2ccccc21` (stereo not drawn) [Example 53, N-{[1-(4-Aminobutyl)-1H-benzimidazol-2-yl}methyl]-N-(2-phenylethyl)-5,6,7,8-tetrahydro-8-quinolinamine], the IC50 lay in the range of 500 to 10000 nM.

As to `CC(C)CCN(Cc1nc2ccccc2n1CCCCN)C1CCCc2cccnc21` (stereo not drawn) [Example 54, N-{[1-(4-Aminobutyl)-1H-benzimidazol-2-yl]methyl}-N-(3-methylbutyl)-5,6,7,8-tetrahydro-8-quinolinamine], the IC50 lay in the range of 100 to 500 nM.

Consider `NCCCCn1c(CN(Cc2ccccc2)C2CCCc3cccnc32)nc2ccccc21` (stereo not drawn) [Example 55, N-{[1-(4-Aminobutyl)-1H-benzimidazol-2-yl]methyl}-N-(Phenylmethyl)-5,6,7,8-tetrahydro-8-quinolinamine], for which the IC50 lay within 500 to 10000 nM.

`CN(C)CC#CCn1c(CN(C)C2CCCc3cccnc32)nc2ccccc21` (stereo not drawn) [Example 56, N-({1-[4-(Dimethylamino)-2-butyn-1-yl}-1H-benzimidazol-2-yl]methyl)-N-methyl-5,6,7,8-tetrahydro-8-quinolinamine]: the IC50 was 100 to 500 nM.

Consider `CN(Cc1nc2ccccc2n1CCCN1CCOCC1)C1CCCc2cccnc21` (stereo not drawn) [Example 57, N-Methyl-N-([1-[3-(4-morpholinyl)propyl]-1H-benzimidazol-2-yl]methyl)-5,6,7,8-tetrahydro-8-quinolinamine], for which the IC50 fell in the range of 100 to 500 nM.

In the case of `CN(Cc1nc2ccccc2n1C/C=C/CN)C1CCCc2cccnc21` (stereo not drawn) [Example 58, N-({1-[(2E)-4-Amino-2-buten-1-yl]-1H-benzimidazol-2-yl}methyl)-N-methyl-5,6,7,8-tetrahydro-8-quinolinamine], the IC50 was 100 to 500 nM.

As to `CN1CCCCC1CCCn1c(CN(C)C2CCCc3cccnc32)nc2ccccc21` (stereo not drawn) [Example 59, N-Methyl-N-({1-[3-(1-methyl-2-piperidinyl)propyl]-1H-benzimidazol-2-yl}methyl)-5,6,7,8-tetrahydro-8-quinolinamine], the IC50 was in the range of 100 to 500 nM.

With `CC(C)N(Cc1nc2ccccc2n1CCCN(C)C)C1CCCc2cccnc21` (stereo not drawn) [Example 60, N-({1-[3-(Dimethylamino)propyl]-1H-benzimidazol-2-yl}methyl)-N-(1-methylethyl)-5,6,7,8-tetrahydro-8-quinolinamine], the IC50 was less than 100 nM.

Regarding `CN(Cc1nc2ccccc2n1CCCNC(=N)N)C1CCCc2cccnc21` (stereo not drawn) [Example 61, N-[3-(2-{[Methyl(5,6,7,8-tetrahydro-8-quinolinyl)amino]methyl}-1H-benzimidazol-1-yl)propyl]guanidine], the IC50 was less than 100 nM.

Take `CN(Cc1nc2ccccc2n1CCCNS(=O)(=O)c1ccccc1)C1CCCc2cccnc21` (stereo not drawn) [Example 62, N-[3-(2-{[Methyl(5,6,7,8-tetrahydro-8-quinolinyl)amino]methyl}-1H-benzimidazol-1-yl)propyl]benzenesulfonamide]: the IC50 is 100 to 500 nM.

For `CN(Cc1nc2ccccc2n1CCCNS(C)(=O)=O)C1CCCc2cccnc21` (stereo not drawn) [Example 63, N-[3-(2-{[Methyl(5,6,7,8-tetrahydro-8-quinolinyl)amino]methyl}-1H-benzimidazol-1-yl)propyl]methanesulfonamide], the IC50 was 100 to 500 nM.

In the case of `CC(C)CCNCCCn1c(CN(C)C2CCCc3cccnc32)nc2ccccc21` (stereo not drawn) [Example 64, N-Methyl-N-[(1-{3-[(3-methylbutyl)amino]propyl}-1H-benzimidazol-2-yl)methyl]-5,6,7,8-tetrahydro-8-quinolinamine], the IC50 is less than 100 nM.

For the molecule `CC(C)CCN(CCCn1c(CN(C)C2CCCc3cccnc32)nc2ccccc21)CCC(C)C` (stereo not drawn) [Example 65, N-[(1-[3-[Bis(3-methylbutyl)amino]propyl]-1H-benzimidazol-2-yl)methyl]-N-methyl-5,6,7,8-tetrahydro-8-quinolinamine], the IC50 is 500 to 10000 nM.

Take `CC(C)CCN(Cc1nc2ccccc2n1CC(C)(C)CN(C)C)C1CCCc2cccnc21` (stereo not drawn) [Example 66, N-({1-[3-(Dimethylamino)-2,2-dimethylpropyl]-1H-benzimidazol-2-yl}methyl)-N-(3-methylbutyl)-5,6,7,8-tetrahydro-8-quinolinamine]: the IC50 was in the range of 500 to 10000 nM.

With `CN(C)CC(C)(C)Cn1c(CN(C)C2CCCc3cccnc32)nc2ccccc21` (stereo not drawn) [Example 67, N-({1-[3-(Dimethylamino)-2,2-dimethylpropyl]-1H-benzimidazol-2-yl}methyl)-N-methyl-5,6,7,8-tetrahydro-8-quinolinamine], the IC50 is less than 100 nM.

Take `CN(Cc1nc2ccccc2n1CC(C)(C)CNC(=N)N)C1CCCc2cccnc21` (stereo not drawn) [Example 68, N-[2,2-Dimethyl-3-(2-{[methyl(5,6,7,8-tetrahydro-8-quinolinyl)amino]methyl}-1H-benzimidazol-1-yl)propyl]guanidine]: the IC50 was less than 100 nM.

Turning to `CC(C)CCNCC(C)(C)Cn1c(CN(C)C2CCCc3cccnc32)nc2ccccc21` (stereo not drawn) [Example 69, N-[(1-{2,2-Dimethyl-3-[(3-methylbutyl)amino]propyl}-1H-benzimidazol-2-yl)methyl]-N-methyl-5,6,7,8-tetrahydro-8-quinolinamine], the IC50 lay within 100 to 500 nM.

Regarding `CN(Cc1nc2ccccc2n1CCn1ccnc1)C1CCCc2cccnc21` (stereo not drawn) [Example 70, N-({1-[2-(1H-Imidazol-1-yl)ethyl]-1H-benzimidazol-2-yl}methyl)-N-methyl-5,6,7,8-tetrahydro-8-quinolinamine], the IC50 was in the range of 100 to 500 nM.

`CN(Cc1nc2ccccc2n1CCc1cncn1C)C1CCCc2cccnc21` (stereo not drawn) [Example 71, N-Methyl-N-({1-[2-(1-methyl-1H-imidazol-5-yl)ethyl]-1H-benzimidazol-2-yl}methyl)-5,6,7,8-tetrahydro-8-quinolinamine]: the IC50 lay in the range of 100 to 500 nM.

For `CN(Cc1nc2ccccc2n1CCc1cn(C)cn1)C1CCCc2cccnc21` (stereo not drawn) [Example 72, N-Methyl-N-({1-[2-(1-methyl-1H-imidazol-4-yl)ethyl]-1H-benzimidazol-2-yl}methyl)-5,6,7,8-tetrahydro-8-quinolinamine], the IC50 lay in the range of 500 to 10000 nM.

In the case of `CN(C)Cc1ccc(-n2c(CN(C)C3CCCc4cccnc43)nc3ccccc32)cc1` (stereo not drawn) [Example 73, N-[(1-{4-[(Dimethylamino)methyl]phenyl}-1H-benzimidazol-2-yl)methyl]-N-methyl-5,6,7,8-tetrahydro-8-quinolinamine], the IC50 was 500 to 10000 nM.

Turning to `CN(C)Cc1ccccc1-n1c(CN(C)C2CCCc3cccnc32)nc2ccccc21` (stereo not drawn) [Example 74, N-[(1-{2-[(Dimethylamino)methyl]phenyl}-1H-benzimidazol-2-yl)methyl]-N-methyl-5,6,7,8-tetrahydro-8-quinolinamine], the IC50 lay within 500 to 10000 nM.

For the molecule `CN(Cc1nc2ccccc2n1C[C@@H]1CCCNC1)[C@H]1CCCc2cccnc21` [Example 75e, (8S)—N-Methyl-N-({1-[(3R)-3-piperidinylmethyl]-1H-benzimidazol-2-yl}methyl)-5,6,7,8-tetrahydro-8-quinolinamine], the IC50 was less than 100 nM.

In the case of `CN1CCC[C@@H](Cn2c(CN(C)[C@H]3CCCc4cccnc43)nc3ccccc32)C1` [Example 75f, (8S)—N-Methyl-N-[(1-{[(3R)-1-methyl-3-piperidinyl]methyl}-1H-benzimidazol-2-yl)methyl]-5,6,7,8-tetrahydro-8-quinolinamine], the IC50 is less than 100 nM.

For the molecule `CN1CCC[C@H](Cn2c(CN(C)[C@@H]3CCCc4cccnc43)nc3ccccc32)C1` [Example 76, (8R)—N-Methyl-N-[(1-{[(3S)-1-methyl-3-piperidinyl]methyl}-1H-benzimidazol-2-yl)methyl]-5,6,7,8-tetrahydro-8-quinolinamine], the IC50 was in the range of 100 to 500 nM.

For `CN1CCC[C@@H](Cn2c(CN(C)[C@@H]3CCCc4cccnc43)nc3ccccc32)C1` [Example 77, (8R)—N-Methyl-N-[(1-{[(3R)-1-methyl-3-piperidinyl]methyl}-1H-benzimidazol-2-yl)methyl]-5,6,7,8-tetrahydro-8-quinolinamine], the IC50 fell in the range of 100 to 500 nM.

As for `CC(C)CCN1CCC[C@@H](Cn2c(CN(C)[C@@H]3CCCc4cccnc43)nc3ccccc32)C1` [Example 78, (8R)—N-Methyl-N-[(1-{[(3R)-1-(3-methylbutyl)-3-piperidinyl]methyl}-1H-benzimidazol-2-yl)methyl]-5,6,7,8-tetrahydro-8-quinolinamine], the IC50 was 100 to 500 nM.

On to `CC(C)N1CCC[C@@H](Cn2c(CN(C)[C@@H]3CCCc4cccnc43)nc3ccccc32)C1` [Example 79, (8R)—N-Methyl-N-[(1-{[(3R)-1-(1-methylethyl)-3-piperidinyl]methyl}-1H-benzimidazol-2-yl)methyl]-5,6,7,8-tetrahydro-8-quinolinamine], for which the IC50 is less than 100 nM.
